In one assay the target is T1, human TNFα trimer (Homo sapiens, UniProt P01375).
T1 construct: His6Smt-tag (N, cleaved yes); made in house; host or cells: E. coli (vector pEMB54)
Description: RMSD of crystal structure of compound-bound TNFα trimer to Reference Structure Compound 34. Particulars: Cα atoms of β-sheet residues, all three subunits, PyMOL. The protocol: Cells were pre-cultured at 37° C. in rich media, induced with the addition of 0.1% arabinose and allowed to express overnight at 25° C. in vector pEMB54. This vector introduces a cleavable N-terminal His6Smt-tag. The cells were lysed and purified by Ni-NTA chelate chromatography. The fusion protein was eluted with buffer containing imidazole and cleaved by the addition of protease. The final cleaved TNFα protein was purified by a subtractive Ni chelate chromatography step to remove the fusion tag and further purified by size exclusion chromatography to remove the remaining impurities. The final TNFα product was typically concentrated to 20.0 mg/ml and flash frozen in liquid nitrogen.
Purified human TNF[…] (20.0 mg/ml, VC 2043) was diluted to 4-7 mg/ml in 10 mM HEPES pH 7.5, 150 mM NaCl buffer followed by overnight incubation at 4° C. with 0.3-0.5 mM compound (1-2 molar excess). The TNF[…] compound complexes were crystallized by sitting drop vapor diffusion by mixing 0.5 μl of complex with 0.5 μl of 21.44% PEG 3350, 100 mM Tris, pH 9.0 (UCB1474433); or 22.0% PEG 3350, 100 mM glycine, 100 mM Tris, pH 8.5 (UCB1480595); or 25.6% PEG 3350, 100 mM Tris, pH 8.3, 3% xylitol (UCB5143079) or other formulation with varying precipitant concentration or additives over 100 μl of the same crystallization solution. Other formulations for other compounds include a range of PEG 3350 of 8-28%. Other PEG-like additives include PEG 1000 (8-18%) or PEG 2000 (10-13%). Other additives include MPD (5-13%) or 200 mM NaCl. Other buffers include 100 mM Hepes (pH 7-8), 100 mM Tris or bis-Tris (pH 6.7-9.0). Other non-PEG 3350 crystallization solutions consist of PEG 2000 (14-19%), 100 mM Hepes, pH 8, 25 mM arginine; or 17% PEG 10000, 200 mM ammonium acetate, 100 mM bis-Tris, pH 5.5; or 30% PEG 2000 MME, 100 mM sodium acetate, 100 mM Mes, pH 6.5.
Crystals were briefly soaked in ethylene glycol and/or vitrified directly in liquid nitrogen for data collection.
X-ray diffraction data were collected from a synchrotron source at a wavelength, most frequently, of 0.976484 Å and recorded on CCD detector. […] The structure of the human TNF[…] (VC 2043) complexed with compound was solved by molecular replacement using Phaser with input model of 1TNF. […] Iterative manual model building using Coot (Emsley and Cowtan, 2004) and Refmac (Murshudov et al., 1997) continued until R and Rfree converged. […] The resolution of the structures was most frequently around 2.15 Å.
Root mean squared deviation (RMSD) calculations were carried out to ascertain the distance of each of the crystal structures of distorted TNFα trimer to a reference structure.
RMSD calculations were done using the program PyMOL (www.pymol.org). In this example version 1.7. was used. The cmd.rms PyMOL command was used with defined pairs of atoms. The atoms used were the backbone Ca's of certain residues within the β-strands of TNFα. The residue numbers used are shown below:
These residue numbers are those within the published structure of TNFα with PDB code 1A8M and within the distorted TNFα trimer structures of this invention. The residue numbers are also according to the sequence of SEQ ID NO:36. The residues in each of the three chains with the TNFα structures, (labelled A, B, and C according to our instructions) were used.
The command cmd.rms was used with the following arguments:
rms=cmd.rms(“(moving)”, “(target)”, matchmaker=4, quiet=0, cycles=0)
where “(moving)” is the selection of atoms in a given TNFα structure and “(target)” is the selection of equivalent atoms within the reference structure.
The RMSD was calculated for each structure against all others. The “representative structure” or “Reference Structure” was chosen to be the one with the lowest sum RMSD to all others—the structure “Compound 34” or “Compound34.pdb”.
Reference Structure (Compound 34) and Query Structure (Compound 64) were overlaid (see FIG. 17 with Reference Structure emboldened) by: • 1. […]

In another assay the test system is TNFR2. The assay can be described thus: Membrane TNF - TNFR2 signalling (NS0-mTNF cells with expanded primary human T cells). It is filed as cell-based. Particulars: compound bound to membrane TNFα on NS0 cells. On the procedure:
A murine B cell line (NS0-mTNF) stably expressing non-cleavable human membrane TNF due to a mutation at the TACE cleavage site was used to trigger TNFR2 signalling in PHA-L and IL-2 expanded primary human T cells. […] TNFR1 was also present on these cells but was blocked using a UCB mouse anti-human-TNFR1 antibody 5R16.
NS0-mTNF cells were cultured with 10 μM NCEs for 1 hour to allow binding of Compounds to membrane TNF. T cells were then mixed with the NS0-mTNF cells and following a brief spin to allow cell-cell contact, cells were incubated for 5 min and then lysed in lysis buffer. […] First TRAF-2 recruitment to the TNFR2 receptor was measured in Co-immunoprecipitation experiments as a measure of membrane proximal signalling. After lysis of cells TNFR2 was isolated from the lysate using polyclonal goat anti-human TNFR2 antibodies followed by protein G sepharose bead purification. TNFR2 associated TRAF-2 was then measured in immunoblots after running the purified TNFR2 preparation on a SDS-PAGE. In addition, the whole cell lysate was also sampled for the presence of pNFκB using SDS-PAGE and pNFκB specific immunoblots.
• PBMC from 3 three different donors were cultured in 6 well plates with 10×10^6 cells per well in 5 ml of RPMI1640 supplemented with 10% FCS, 1% human serum, HEPES GlutaMAX, 25 U/ml hIL-2 (Roche) and 2 μg/ml PHA-L (Sigma) to grow out T cells • after 3 days cells were resuspended and cultured in 75 cm^2 flasks with the same media as above, but lacking the PHA-L • growth of culture was monitored and media was changed every 3 days.
This is a 2× solution • prepare 500 μl of 10×10^6 NS0-wt cells • After 1 h add 500 μl human T cells (50×10^6 cells/test) in human media at 37° C. T cells were preincubated for 15 min @37° C. with 50 μg/ml 5R16 anti-TNFR1 Fab-PEG to block signalling via TNFR1 prior adding to the NS0 cells. […]

Assay [1] has as its target T2, TNFα (Homo sapiens, UniProt P01375). The assay can be described thus: Surface plasmon resonance kinetics of compound binding to immobilised TNFα. The protocol:
Surface plasmon resonance was used to measure the association rate, the dissociation rate and the affinity of the compounds of formulae (3) and (15) for TNFα (FIGS. 12A and B). For the purpose of this study a Biacore T100/T200 was used.
TNFα was immobilised at pH5 to a level of 5-8 KRU onto a CMS sensor in HBS-P buffer (10 mM HEPES pH 7.4, 0.15 M NaCl, 0.005% Surfactant P20, BIAcore, GE Healthcare). The TNFα was then equilibrated in HBS-P with 5% DMSO for at least 5 hours. The samples were diluted from 10 mM stocks into DMSO matched buffer and left to solubilise for at least 5 hours. The flow rate was […].
This assay was performed by adding 4 or 5 concentrations of compound starting from a highest concentration of 25 μM for compound of formula (3) and 1 μM for compound of formula (15) and then serially diluting this sample. Background subtraction binding curves were analysed using the BIAevaluation software following standard procedures. Binding, affinity and kinetic parameters were determined using Biacore software. The kinetic data were fitted using the levenberg marquardt algorithm.
Target sequence in this assay (P01375 77-233 limits assumed): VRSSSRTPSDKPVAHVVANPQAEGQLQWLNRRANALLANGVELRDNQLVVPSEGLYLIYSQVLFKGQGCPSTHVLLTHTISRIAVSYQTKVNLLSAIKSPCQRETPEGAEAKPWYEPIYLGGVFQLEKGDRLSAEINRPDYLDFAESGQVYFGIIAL
(In general: SPR reads the build-up and loss of mass on a sensor chip optically.)

Assay [2] has as its target T2, TNFα. The assay can be described thus: Meso Scale Discovery (MSD) assay of TNFα binding to plate-coated TNFR-ECD. Also on record: purchased R&D Systems. Particulars: single point, 100 μM, 5% DMSO. The protocol:
384 well uncoated plates (standard binding) Meso Scale Discovery plates (MSD) were coated overnight with the extracellular domain of TNFR (TNFR-ECD) (10 μl, 1 ug/mL in PBS). To ensure even distribution plates were centrifuged at 1000 rpm for 2 minutes. The plates were then sealed and stored at +4° C. overnight.
The wells of the plates were then washed three times in 50 μl phosphate buffered saline pH 6.5 (PB) with 0.05% Tween 20 (wash buffer), and then blocked with 50 μl 2% BSA. The plates were then incubated at room temperature on a shaker (600 rpm) for 2 hours. After this incubation plates were washed (3×50 μl wash buffer per well). During the blocking incubation, compounds of formulae (3) and (15) were pre-incubated with TNF (R&D Systems) prior to addition to the pre-blocked and washed MSD plates. For a single point assay as shown in FIG. 2A the compounds were assayed at a final concentration of 100 μM (5% final v/v DMSO). […]
The plates were then washed (3×50 μl wash buffer per well), followed by the addition of 50 μl MSD Read buffer T plus surfactant (diluted 1 in 2 in H2O) and read on a SECTOR Imager 6000.
For single point assays percentage inhibition was calculated using a control sample without compound.
For EC50s determination results were calculated by standard means using a 4 parameter logistic model (sigmoidal dose response model).
Target sequence in this assay (P01375 77-233 limits assumed): as above
Target sequence in this assay (P19438 30-211 partner limits assumed): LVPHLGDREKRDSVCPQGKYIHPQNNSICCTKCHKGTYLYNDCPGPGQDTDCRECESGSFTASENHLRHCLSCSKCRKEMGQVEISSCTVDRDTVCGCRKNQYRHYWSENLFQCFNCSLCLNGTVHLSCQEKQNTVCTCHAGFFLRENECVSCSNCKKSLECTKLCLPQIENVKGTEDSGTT

T1 sequence (P01375 with tags, fused parts or gaps): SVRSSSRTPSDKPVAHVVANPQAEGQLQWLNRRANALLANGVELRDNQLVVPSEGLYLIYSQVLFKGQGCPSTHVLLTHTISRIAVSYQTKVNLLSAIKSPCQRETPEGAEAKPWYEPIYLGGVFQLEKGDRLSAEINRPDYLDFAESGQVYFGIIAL

Regarding `O=C1CCCN1c1cccc(OCc2nc3ccc(-c4ccc(=O)[nH]c4)cc3n2Cc2ccccc2OC(F)F)c1` [Compound 39], the “RMSD (Å) with Compound 34” value on human TNFα trimer is recorded as 0.22 Å. In the assay with TNFR2, the “TNFR2 specific membrane proximal (TRAF-2 recruitment to TNFR2) and downstream (pNFκB) signalling” value is on record as “does not impair”. Besides, the kon (as a rule, a measure of how fast the partners come together) on TNFα [1] was 5470 M⁻¹ s⁻¹. Consider `Cc1nc2ccc(-c3ccc(N4CCNCC4)nc3)cn2c1Cc1ccccc1OC(F)F` [Compound 43], for which, at human TNFα trimer, the “RMSD (Å) with Compound 34” value is listed as 0.36 Å. In the assay with TNFR2, the “TNFR2 specific membrane proximal (TRAF-2 recruitment to TNFR2) and downstream (pNFκB) signalling” value is “does not impair”.

Consider `Cc1nc2ccc(-c3cnc(N4CCNC(=O)CC4)nc3)cn2c1C(C)c1ccccc1OC(F)F` (stereo not shown) [Compound 57], for which the “RMSD (Å) with Compound 34” value at human TNFα trimer is given as 0.30 Å.

On to `CS(=O)(=O)c1ccc(-c2ccc3nc4n(c3c2)C(c2ccccc2OC(F)F)CC4)cc1` (stereo not shown) [Compound 61], for which, on human TNFα trimer, the “RMSD (Å) with Compound 34” value was 0.28 Å. `CS(=O)(=O)c1ccc(Cc2nc3ccc(-c4ccc(S(C)(=O)=O)cc4)cc3n2Cc2ccccc2OC(F)F)cc1` [Compound 62]: the “RMSD (Å) with Compound 34” value on human TNFα trimer came to 0.16 Å.

Regarding `Cc1nc2cc(F)c(-c3cnc(N4CC(O)(C(F)(F)F)C4)nc3)cn2c1[C@@H](O)c1ccccc1OC(F)F` [Compound 64, 1-[5-[3-[(S)-[2-(difluoromethoxy)phenyl]-hydroxy-methyl]-7-fluoro-2-methyl-imidazo[1,2-a]pyridin-6-yl]pyrimidin-2-yl]-3-(trifluoromethyl)azetidin-3-ol], at human TNFα trimer, the “RMSD (Å) with Compound 34” value was determined as 0.22 Å.

With `Cc1cc2occ(CN(C)CCN(C)Cc3cn(-c4cccc(C(F)(F)F)c4)c4ccccc34)c(=O)c2cc1C` [SPD-304], the “% inhibition of TNFα binding to the TNF receptor” value on TNFα [2] is on record as “+80%”.

The values above are taken from patent publication US11674967B2, “Method of identifying potential inhibitors of APO TNFα trimers” (UCB BIOPHARMA SRL, priority 2015, dated 2023).
